# Results taken from article PMC10708259 (Molecules, 2023).
# Tests used:
# [1] = biological target: T1, human μ-opioid receptor (OPRM1) (Homo sapiens, UniProt P35372); experiment: cell-based; assay type: cell-based; details: for EC50: MOR Agonist EC50 ± SEM; for Emax: read-out: MOR Agonist %Emax ± SEM
# T1 construct: host or cells: cAMP Hunter CHO-K1
# [2] = biological target: human δ-opioid receptor (OPRD1) (Homo sapiens, UniProt P41143); experiment: Forskolin-induced cAMP accumulation assay, DOR agonist mode; details: for Emax: CHO-K1, read-out: DOR Agonist %Emax ± SEM; for DOR efficacy in words: cAMP assay
# Sequence of human δ-opioid receptor (OPRD1) (P41143 whole entry): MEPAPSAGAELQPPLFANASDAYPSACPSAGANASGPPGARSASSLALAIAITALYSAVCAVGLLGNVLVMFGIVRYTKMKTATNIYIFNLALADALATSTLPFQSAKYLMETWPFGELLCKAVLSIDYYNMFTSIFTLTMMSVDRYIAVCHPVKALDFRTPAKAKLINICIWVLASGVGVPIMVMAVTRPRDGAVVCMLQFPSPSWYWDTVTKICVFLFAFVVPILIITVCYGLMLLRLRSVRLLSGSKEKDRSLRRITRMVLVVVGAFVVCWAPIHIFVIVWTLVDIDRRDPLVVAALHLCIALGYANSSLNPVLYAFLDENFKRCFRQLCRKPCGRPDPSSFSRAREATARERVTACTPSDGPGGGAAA
# [3] = biological target: human κ-opioid receptor (OPRK1) (Homo sapiens, UniProt P41145); experiment: Forskolin-induced cAMP accumulation assay, KOR agonist mode; details: for Emax: CHO-K1, read-out: KOR Agonist %Emax ± SEM
# Sequence of human κ-opioid receptor (OPRK1) (P41145 whole entry): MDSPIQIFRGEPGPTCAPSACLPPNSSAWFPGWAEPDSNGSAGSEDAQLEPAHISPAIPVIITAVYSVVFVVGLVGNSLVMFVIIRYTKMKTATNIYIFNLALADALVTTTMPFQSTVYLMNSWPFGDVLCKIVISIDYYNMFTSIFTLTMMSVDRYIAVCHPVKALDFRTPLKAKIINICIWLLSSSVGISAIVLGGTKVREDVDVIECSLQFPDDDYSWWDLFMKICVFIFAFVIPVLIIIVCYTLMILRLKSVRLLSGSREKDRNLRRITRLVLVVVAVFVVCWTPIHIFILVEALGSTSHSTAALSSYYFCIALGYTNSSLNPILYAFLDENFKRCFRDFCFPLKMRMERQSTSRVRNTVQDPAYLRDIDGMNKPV
# T1 sequence (P35372 whole entry): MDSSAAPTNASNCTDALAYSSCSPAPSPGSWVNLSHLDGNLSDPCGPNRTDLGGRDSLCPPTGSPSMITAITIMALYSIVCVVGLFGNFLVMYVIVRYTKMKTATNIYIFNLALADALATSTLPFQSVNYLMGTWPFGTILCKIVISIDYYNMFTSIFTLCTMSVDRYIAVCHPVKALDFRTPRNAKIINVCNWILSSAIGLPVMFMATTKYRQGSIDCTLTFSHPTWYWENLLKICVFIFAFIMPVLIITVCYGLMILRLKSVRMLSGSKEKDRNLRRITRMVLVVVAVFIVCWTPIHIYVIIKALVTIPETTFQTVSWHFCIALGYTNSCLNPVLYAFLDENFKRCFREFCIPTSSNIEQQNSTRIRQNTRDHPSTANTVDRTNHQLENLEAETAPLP
Compound,EC50 [1] [nM],Emax [1] [%],EC50 [2] [nM],Emax [2] [%],EC50 [3] [nM],Emax [3] [%],MOR potency relative to morphine (times more potent than morphine) [1],DOR efficacy in words [2],MOR agonist potency / efficacy in words [1]
"C[C@@H]1[C@@H]2C(O)c3ccc(O)cc3[C@@]1(C)CCN2CCc1ccccc1 (single isomer, unassigned; (+)) [(+)-36]",25.2,103,1910 ± 232,97,> 10000,–,–,–,–
"C=C1c2ccc(O)cc2[C@@]2(C)CCN(CCc3ccccc3)[C@@H]1[C@H]2C [(+)-38, (2R,6S,11S)-6,11-Dimethyl-1-methylene-3-phenethyl-1,2,3,4,5,6-hexahydro-2,6-methanobenzo[d]azocin-8-ol]",70,102,978 ± 374,92,1180 ± 46,53,–,–,–
"C=C1c2ccc(O)cc2[C@]2(C)CCN(CCc3ccccc3)[C@H]1[C@@H]2C [(−)-38, (2S,6R,11R)-6,11-Dimethyl-1-methylene-3-phenethyl-1,2,3,4,5,6-hexahydro-2,6-methanobenzo[d]azocin-8-ol]",0.23,101,4.9 ± 3,89,9.5 ± 2,57 ± 45.6,about 25 times,–,–
"CC1C2Cc3ccc(O)cc3C1(C)CCN2CCc1ccc([N+](=O)[O-])cc1 [Compound 3, (1R,5R,9R)-6,11-Dimethyl-3-(4-nitrophenethyl)-1,2,3,4,5,6-hexahydro-2,6-methanobenzo[d]azocin-8-ol]",0.3,101,2.7 ± 1,88,13 ± 0.5,46,–,partial DOR agonists,–
"CC1C2Cc3ccc(O)cc3C1(C)CCN2CCc1cccc([N+](=O)[O-])c1 [Compound 4, (1R,5R,9R)-6,11-Dimethyl-3-(3-nitrophenethyl)-1,2,3,4,5,6-hexahydro-2,6-methanobenzo[d]azocin-8-ol]",26,71,–,–,–,–,–,–,–
"CC1C2Cc3ccc(O)cc3C1(C)CCN2CCc1ccccc1F [Compound 8, (1R,5R,9R)-6,11-Dimethyl-3-(2-fluorophenethyl)-1,2,3,4,5,6-hexahydro-2,6-methanobenzo[d]azocin-8-ol]",0.2,101,6 ± 2,87,6 ± 1,45,about 30 times,–,–
"CC1C2Cc3ccc(O)cc3C1(C)CCN2CCc1ccc(C(F)(F)F)cc1 [Compound 9, (1R,5R,9R)-6,11-Dimethyl-3-(4-trifluoromethylphenethyl)-1,2,3,4,5,6-hexahydro-2,6-methanobenzo[d]azocin-8-ol]",2,102,3 ± 1,72,23 ± 5,100,–,partial DOR agonists,–
"CC1C2Cc3ccc(O)cc3C1(C)CCN2CCc1cccc(C(F)(F)F)c1 [Compound 10, (1R,5R,9R)-6,11-Dimethyl-3-(3-trifluoromethylphenethyl)-1,2,3,4,5,6-hexahydro-2,6-methanobenzo[d]azocin-8-ol]",167,63,–,–,–,–,–,–,–
"CC1C2Cc3ccc(O)cc3C1(C)CCN2CCc1ccccc1C(F)(F)F [Compound 11, (1R,5R,9R)-6,11-Dimethyl-3-(2-trifluoromethylphenethyl)-1,2,3,4,5,6-hexahydro-2,6-methanobenzo[d]azocin-8-ol]",6,102,24 ± 5,77,36 ± 3,72,–,–,–
"CC1C2Cc3ccc(O)cc3C1(C)CCN2CCc1ccc(Br)cc1 [Compound 12, (1R,5R,9R)-6,11-Dimethyl-3-(4-bromophenethyl)-1,2,3,4,5,6-hexahydro-2,6-methanobenzo[d]azocin-8-ol]",0.7,102,1.1 ± 0.3,89,5 ± 2,100,–,partial DOR agonists,–
"CC1C2Cc3ccc(O)cc3C1(C)CCN2CCc1ccccc1Br [Compound 14, (1R,5R,9R)-6,11-Dimethyl-3-(2-bromophenethyl)-1,2,3,4,5,6-hexahydro-2,6-methanobenzo[d]azocin-8-ol]",2,101,13 ± 2,89,16 ± 2,80,–,–,–
"CC1C2Cc3ccc(O)cc3C1(C)CCN2CCc1ccc(Cl)cc1 [Compound 15, (1R,5R,9R)-6,11-Dimethyl-3-(4-chlorophenethyl)-1,2,3,4,5,6-hexahydro-2,6-methanobenzo[d]azocin-8-ol]",1.3,103,1.2 ± 0.5,89,5 ± 1,97,–,partial DOR agonists,–
"CC1C2Cc3ccc(O)cc3C1(C)CCN2CCc1ccccc1Cl [Compound 17, (1R,5R,9R)-6,11-Dimethyl-3-(2-chlorophenethyl)-1,2,3,4,5,6-hexahydro-2,6-methanobenzo[d]azocin-8-ol]",1.4,101,15 ± 4,87,8 ± 1,57,–,–,–
"COc1ccc(CCN2CCC3(C)c4cc(O)ccc4CC2C3C)cc1 [Compound 18, (1R,5R,9R)-6,11-Dimethyl-3-(4-methoxyphenethyl)-1,2,3,4,5,6-hexahydro-2,6-methanobenzo[d]azocin-8-ol]",1.2,103,4 ± 1,87,9 ± 2,89,–,–,–
"Cc1ccc(CCN2CCC3(C)c4cc(O)ccc4CC2C3C)cc1 [Compound 19, (1R,5R,9R)-6,11-Dimethyl-3-(4-methylphenethyl)-1,2,3,4,5,6-hexahydro-2,6-methanobenzo[d]azocin-8-ol]",1.4,103,5 ± 2,87,13 ± 3,93,–,–,–
"CC1C2Cc3ccc(O)cc3C1(C)CCN2CCc1ccc(O)cc1 [Compound 20, (1R,5R,9R)-6,11-Dimethyl-3-(4-hydroxyphenethyl)-1,2,3,4,5,6-hexahydro-2,6-methanobenzo[d]azocin-8-ol]",0.13,102,5 ± 1,84,8 ± 3,97,~40 times,–,–
"C[C@H]1[C@H]2Cc3ccc(O)cc3[C@]1(C)CCN2CCCc1ccccc1 [Compound 24, (1R,5R,9R)-6,11-Dimethyl-3-(phenylpropyl)-1,2,3,4,5,6-hexahydro-2,6-methanobenzo[d]azocin-8-ol]",69,101,–,–,–,–,–,–,little or no potency
"CC1C2Cc3ccc(O)cc3C1(C)CCN2CC=Cc1ccccc1 [Compound 25, (1R,5R,9R)-6,11-Dimethyl-3-(cinnamyl)-1,2,3,4,5,6-hexahydro-2,6-methanobenzo[d]azocin-8-ol]",244,101,–,–,–,–,–,–,little or no potency
"C[C@H]1[C@H]2Cc3ccc(O)cc3[C@]1(C)CCN2CCCc1ccc([N+](=O)[O-])cc1 [Compound 31, (1R,5R,9R)-6,11-Dimethyl-3-(3-(4-nitrophenyl)propyl)-1,2,3,4,5,6-hexahydro-2,6-methanobenzo[d]azocin-8-ol]",≥ 10000,–,–,–,–,–,–,–,little or no potency
